In the supplement of paper PMC10883282:
± gives the standard deviation of the averaged measurements.

Tested on: SW982
Experiment: relative viability vs DMSO control (72 h) (fraction); higher = more viable cells
Method in brief: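 Sarcoma cell lines were seeded in 384-well plates at densities set to reach 80–90% confluence. After 24 h, 2.5 µl of serially diluted compound was added (source plates 10 mM to 0.0002 mM), and plates were held 72 h at 37 °C, 5% CO2, with 0.1% DMSO vehicle and a 5 µM positive control. Relative viability came from ATPLite readings as percent growth, averaged over up to triplicate wells. Data were rescaled so full viability equals 1 and none equals 0.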

| SMILES | relative viability (0.00017 µM) | relative viability (0.00051 µM) | relative viability (0.00152 µM) | relative viability (0.00457 µM) | relative viability (0.01372 µM) | relative viability (0.04115 µM) | relative viability (0.1235 µM) | relative viability (0.3704 µM) | relative viability (1.111 µM) | relative viability (3.333 µM) | relative viability (10 µM) |
| --- | --- | --- | --- | --- | --- | --- | --- | --- | --- | --- | --- |
| Cc1ccc(F)c(NC(=O)Nc2ccc(-c3cccc4[nH]nc(N)c34)cc2)c1 [Linifanib] | 1.03 ± 0.027 | 1.08 ± 0.024 | 1.05 ± 0.035 | 1.07 ± 0.032 | 1.03 ± 0.021 | 1.06 ± 0.043 | 1.06 ± 0.019 | 1.08 ± 0.04 | 1.1 ± 0.036 | 1.12 ± 0.015 | 1.12 ± 0.04 |
| COCc1c(-c2cc3cc(C)cc(OC)c3s2)c2c(N)ncnn2c1CN1CCNC(=O)C1 [Rogaratinib] | 1.05 ± 0.019 | 1.06 ± 0.028 | 1.07 ± 0.058 | 1.06 ± 0.012 | 1.06 ± 0.027 | 1.07 ± 0.028 | 1.06 ± 0.065 | 1.06 ± 0.044 | 0.996 ± 0.024 | 0.728 ± 0.023 | 0.362 ± 0.0075 |
| N#CC[C@H](C1CCCC1)n1cc(-c2ncnc3[nH]ccc23)cn1 [Ruxolitinib] | 0.96 ± 0.072 | 0.971 ± 0.05 | 0.964 ± 0.049 | 0.949 ± 0.054 | 0.939 ± 0.058 | 0.919 ± 0.061 | 0.915 ± 0.019 | 0.879 ± 0.02 | 0.842 ± 0.015 | 0.7741 ± 0.005 | 0.614 ± 0.022 |
| CCN1CCN(Cc2ccc(Nc3ncc(F)c(-c4cc(F)c5nc(C)n(C(C)C)c5c4)n3)nc2)CC1 [Abemaciclib] | 1.05 ± 0.036 | 1.06 ± 0.046 | 1.04 ± 0.043 | 1.06 ± 0.041 | 1.07 ± 0.035 | 0.987 ± 0.031 | 0.787 ± 0.046 | 0.593 ± 0.02 | 0.469 ± 0.013 | 0.302 ± 0.12 | 0.0803 ± 0.12 |
| CNC(=O)c1cc(Oc2ccc(NC(=O)Nc3ccc(Cl)c(C(F)(F)F)c3)c(F)c2)ccn1 [Regorafenib] | 1.03 ± 0.017 | 1.09 ± 0.057 | 1.08 ± 0.043 | 1.1 ± 0.052 | 1.06 ± 0.032 | 1.08 ± 0.057 | 1.09 ± 0.044 | 1.09 ± 0.056 | 0.997 ± 0.037 | 0.8827 ± 0.0051 | 0.795 ± 0.0056 |
| Nc1cc(C(F)(F)F)c(-c2cc(N3CCOCC3)nc(N3CCOCC3)n2)cn1 [Buparlisib] | 1 ± 0.025 | 1 ± 0.033 | 1.04 ± 0.031 | 1.03 ± 0.049 | 1.04 ± 0.011 | 1.02 ± 0.041 | 0.983 ± 0.035 | 0.86 ± 0.02 | 0.405 ± 0.033 | 0.146 ± 0.0066 | 0.0979 ± 0.0037 |
| CC(C)NC(=O)C1CCC(n2c(NC(=O)c3ccc(F)cc3)nc3ccc(CN4CCC(C(C)(C)O)CC4)cc32)CC1 (centres undefined) [Belizatinib] | 1.09 ± 0.024 | 1.06 ± 0.023 | 1.05 ± 0.037 | 1.06 ± 0.03 | 1.06 ± 0.02 | 1.03 ± 0.054 | 0.974 ± 0.048 | 0.766 ± 0.045 | 0.383 ± 0.035 | 0.173 ± 0.011 | 0.0273 ± 0.0064 |
| CC1(C)CNc2cc(NC(=O)c3cccnc3NCc3ccncc3)ccc21 [Motesanib] | 0.9792 ± 0.0014 | 0.972 ± 0.029 | 0.964 ± 0.039 | 0.964 ± 0.032 | 0.954 ± 0.013 | 0.933 ± 0.046 | 0.978 ± 0.042 | 0.965 ± 0.013 | 0.969 ± 0.033 | 0.9654 ± 0.0093 | 0.908 ± 0.086 |
| CC(=O)Nc1cccc(-n2c(=O)n(C3CC3)c(=O)c3c(Nc4ccc(I)cc4F)n(C)c(=O)c(C)c32)c1 [Trametinib] | 0.993 ± 0.045 | 0.988 ± 0.044 | 0.981 ± 0.028 | 0.938 ± 0.051 | 0.893 ± 0.095 | 0.866 ± 0.07 | 0.847 ± 0.084 | 0.848 ± 0.038 | 0.858 ± 0.049 | 0.838 ± 0.049 | 0.799 ± 0.027 |
